US12642271B2, “Active compound combinations comprising a (thio)carboxamide derivative and a fungicidal compound” (Bayer CropScience Aktiengesellschaft, priority 2011, dated 2026)
Where two headings read alike, the source gives them in different places.

Experiments:
Leptosphaeria nodorum = Leptosphaeria nodorum test (wheat)/preventive; format: in vivo
Septoria tritici = assay: Septoria tritici-test (wheat)/preventive; format: in vivo; conditions: preventive, evaluated 21 days after inoculation
[1] = tested on: Fusarium nivale (var. majus); assay: Fusarium nivale (var. majus)-test (wheat)/preventive; conditions: for pest or weed control at 40 ppm: 40 ppm a.i.
Method: After the spray coating has been dried, the plants are slightly injured by using a sandblast and afterwards they are sprayed with a conidia suspension of Fusarium nivale (var. majus).
The plants are placed in the greenhouse under a translucent incubation cabinet at a temperature of approximately 10° C. and a relative atmospheric humidity of approximately 100%.
The test is evaluated 5 days after the inoculation.

Sphaerotheca fuliginea = assay: Sphaerotheca test (cucumbers)/preventive; format: in vivo
Puccinia triticina = assay: Puccinia triticina-test (wheat)/preventive; format: in vivo; conditions: preventive, evaluated 8 days after inoculation
Venturia inaequalis = assay: Venturia test (apples)/preventive
Method: After the spray coating has dried on, the plants are inoculated with an aqueous conidia suspension of the causal agent of apple scab (Venturia inaequalis) and then remain for 1 day in an incubation cabinet at approximately 20° C. and a relative atmospheric humidity of 100%.
The plants are then placed in a greenhouse at approximately 21° C. and a relative atmospheric humidity of approximately 90%.
The test is evaluated 10 days after the inoculation.

Alternaria solani = assay: Alternaria test (tomatoes)/preventive; format: in vivo
[2] = tested on: Blumeria graminis f.sp. hordei; assay: Blumeria test (barley)/preventive; format: in vivo; conditions: for pest or weed control at 10 ppm: Blumeria graminis, 168 h, read-out: Efficacy in % found
Phytophthora infestans = assay: whole plant or invertebrate; format: in vivo
[3] = Parastagonospora nodorum, 192 h, application rate 10 ppm, wheat, preventive, evaluated 8 days after inoculation, read-out: Efficacy in % found
[4] = Microdochium nivale, in Triticum aestivum, 120 h, read-out: Efficacy in % found, Table 8e

Compound: Fc1ccc([C@]2(Cn3cncn3)O[C@H]2c2ccccc2Cl)cc1 (racemic) [B1.12, epoxiconazole]
- pest or weed control at 10 ppm (Leptosphaeria nodorum; Parastagonospora nodorum, 192 h, Table 9a, 10 ppm a.i., read-out: Efficacy in % found): 0%
- pest or weed control at 10 ppm (Leptosphaeria nodorum; [3]): 29%
- pest or weed control at 10 ppm (Septoria tritici; Zymoseptoria tritici, 504 h, application rate 10 ppm a.i., read-out: Efficacy in % found): 0%
- pest or weed control at 40 ppm [1, 4]: 0%

Compound: CC1(C)CCC(Cc2ccc(Cl)cc2)C1(O)Cn1cncn1 (centres unmarked) [B1.30, metconazole]
- pest or weed control at 5 ppm (Sphaerotheca fuliginea; Podosphaera fuliginea, 168 h, Table 4d, 5 ppm a.i., read-out: Efficacy in % found): 77%
- pest or weed control at 80 ppm (Leptosphaeria nodorum; Parastagonospora nodorum, 192 h, application rate 80 ppm, wheat, preventive, evaluated 8 days after inoculation, read-out: Efficacy in % found): 44%
- pest or weed control at 20 ppm (Puccinia triticina; Puccinia triticina, 192 h, application rate 20 ppm a.i., read-out: Efficacy in % found): 44%
- pest or weed control at 1 ppm (Venturia inaequalis; Venturia inaequalis, 240 h, read-out: Efficacy in % found, Table 2c, 1 ppm a.i.): 38%
- pest or weed control at 20 ppm ([1]; Microdochium nivale, in Triticum aestivum, 120 h, read-out: Efficacy in % found, Table 8c, 20 ppm a.i.): 13%
- pest or weed control at 80 ppm ([1]; Microdochium nivale, in Triticum aestivum, 120 h, read-out: Efficacy in % found, Table 8e, 80 ppm a.i.): 0%

Compound: propamocarb-HCl [B10.10]
- Efficacy in % found (Alternaria solani; Table 3a, 50 ppm a.i.): 0%
- Efficacy in % found (Sphaerotheca fuliginea; Table 4a, 50 ppm a.i.): 0%
- Efficacy in % found (Sphaerotheca fuliginea; Table 4d, 50 ppm a.i.): 70%
- Efficacy in % found ([2]; Table 6c, 400 ppm): 13%
- Efficacy in % found (Venturia inaequalis; Table 2a, 50 ppm a.i.): 0%

Compound: Cn1cc(C(=O)Nc2cccc3c2[C@@H]2CC[C@H]3C2=C(Cl)Cl)c(C(F)F)n1 (racemic) [B2.29, benzovindiflupyr]
- Efficacy in % found (Alternaria solani; Table 3e, 0.5 ppm): 21%
- Efficacy in % found (Venturia inaequalis; Table 2e, 0.1 ppm a.i.): 76%
- Efficacy in % found ([1]; Table 8f, 120 ppm a.i.): 25%

Compound: mancozeb [B5.23]
- Efficacy in % found (Phytophthora infestans; Table 1c, 50 ppm a.i.): 45%
- Efficacy in % found (Alternaria solani; Table 3a, 50 ppm a.i.): 56%
- Efficacy in % found (Alternaria solani; Table 3d, 50 ppm): 0%
- Efficacy in % found (Sphaerotheca fuliginea; Table 4a, 25 ppm a.i.): 0%
- Efficacy in % found ([2]; Table 6c, 400 ppm): 0%
- Efficacy in % found (Leptosphaeria nodorum; Table 9e, 100 ppm a.i.): 0%

Compound: CCN(C)C=Nc1cc(C)c(Oc2nc(Cc3ccc(Cl)cc3)ns2)cc1C [B15.78, N′-(4-{[3-(4-chlorobenzyl)-1,2,4-thiadiazol-5-yl]oxy}-2,5-dimethylphenyl)-N-ethyl-N-methylimidoformamide]
- pest or weed control at 62.5 ppm (Puccinia triticina; Puccinia triticina, 192 h, application rate 62.5 ppm a.i., read-out: Efficacy in % found): 57%
- pest or weed control at 5 ppm (Venturia inaequalis; Venturia inaequalis, 240 h, read-out: Efficacy in % found, Table 2f, 5 ppm a.i.): 16%

Compound: folpet [B5.16]
- Efficacy in % found (Alternaria solani; Table 3e, 12.5 ppm): 39%
- Efficacy in % found (Sphaerotheca fuliginea; Table 4a, 25 ppm a.i.): 0%
- Efficacy in % found (Leptosphaeria nodorum; application rate 400 ppm a.i., wheat, preventive, evaluated 8 days after inoculation): 44%
- Efficacy in % found (Venturia inaequalis; Table 2a, 12.5 ppm a.i.): 47%
- Efficacy in % found (Venturia inaequalis; Table 2e, 10 ppm a.i.): 45%
- Efficacy in % found ([1]; Table 8f, 200 ppm a.i.): 50%

Compound: propineb [B5.29]
- Efficacy in % found (Phytophthora infestans; Table 1c, 50 ppm a.i.): 50%
- Efficacy in % found (Alternaria solani; Table 3a, 50 ppm a.i.): 33%
- Efficacy in % found (Alternaria solani; Table 3d, 50 ppm): 0%
- Efficacy in % found (Sphaerotheca fuliginea; Table 4a, 50 ppm a.i.): 0%
- Efficacy in % found (Sphaerotheca fuliginea; Table 4d, 50 ppm a.i.): 70%
- Efficacy in % found ([2]; Table 6c, 400 ppm): 13%

Compound: CCO[PH](=O)O [B15.24, fosetyl-Al]
- Efficacy in % found (Alternaria solani; Table 3a, 50 ppm a.i.): 40%
- Efficacy in % found (Sphaerotheca fuliginea; Table 4a, 50 ppm a.i.): 0%
- Efficacy in % found (Sphaerotheca fuliginea; Table 4d, 12.5 ppm a.i.): 0%
- Efficacy in % found (Venturia inaequalis; Table 2a, 50 ppm a.i.): 0%

Compound: Cn1cc(C(=O)Nc2ccc(F)cc2-c2ccc(Cl)c(Cl)c2)c(C(F)F)n1 [B2.1, bixafen]
- Efficacy in % found (Sphaerotheca fuliginea; Table 4d, 0.5 ppm a.i.): 67%
- Efficacy in % found (Leptosphaeria nodorum; Table 9a, 40 ppm a.i.): 0%
- Efficacy in % found (Leptosphaeria nodorum; application rate 40 ppm, wheat, preventive, evaluated 8 days after inoculation): 0%
- Efficacy in % found (Puccinia triticina; application rate 40 ppm a.i.): 22%
- Efficacy in % found (Septoria tritici; application rate 10 ppm a.i.): 29%
- Efficacy in % found (Septoria tritici; application rate 40 ppm a.i.): 29%
- Efficacy in % found ([1]; Table 8b, 10 ppm a.i.): 14%

Compound: O=C(NCc1ncc(C(F)(F)F)cc1Cl)c1c(Cl)cccc1Cl [B4.6, fluopicolide]
- Efficacy in % found (Phytophthora infestans; Table 1a, 1 ppm a.i.): 13%
- Efficacy in % found ([2]; Table 6f, 400 ppm a.i.): 13%
- Efficacy in % found (Leptosphaeria nodorum; Table 9c, 100 ppm a.i.): 17%

Compound: CC(C)(C)C(O)(CCc1ccc(Cl)cc1)Cn1cncn1 (centres unmarked) [B1.47, tebuconazole]
- pest or weed control at 10 ppm ([2]; Table 6f, 10 ppm a.i.): 50%
- pest or weed control at 10 ppm ([2]; Table 6d, 10 ppm): 33%
- pest or weed control at 10 ppm (Leptosphaeria nodorum; [3]): 33%
- pest or weed control at 4 ppm (Puccinia triticina; Puccinia triticina, 192 h, application rate 4 ppm a.i., read-out: Efficacy in % found): 33%
- pest or weed control at 40 ppm (Septoria tritici; Zymoseptoria tritici, 504 h, application rate 40 ppm a.i., read-out: Efficacy in % found): 71%
- pest or weed control at 10 ppm ([1]; Microdochium nivale, in Triticum aestivum, 120 h, read-out: Efficacy in % found, Table 8c, 10 ppm a.i.): 25%
- pest or weed control at 40 ppm [1, 4]: 0%
